Among the test systems are HCT-116; SK-OV-3; HOP-92; T47D; BT-549; HCT-15; DU-145; NCI-H23; SK-MEL-28; SK-MEL-5; SK-MEL-2; HT-29; CCRF-CEM; SF-268; HOP-62; OVCAR-3; SNB-75; MOLT-4; OVCAR-4; NCI-H226.
What all share (test): NCI tumour cell line growth inhibition, 48 h

This note sets out measurements from ChEMBL document CHEMBL1201862, “PubChem BioAssay data set” (2004).

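Results reflect a 48-hour exposure of cells in 96-well plates to compound at five concentrations. The concentration for 50% growth inhibition is given as GI50.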 Active and inactive are the calls of the source. Rule as the data show it: active = GI50 up to about 1.1 µM and inactive = higher. Bounds are passed on as bounds.

Turning to `COc1cccc(/C=N/C(/N=C/c2cccc(OC)c2O)c2cccc(OC)c2O)c1O`, the GI50 is 14.6 µM (inactive) in the assay on HCT-116; 26 µM (inactive) with SK-OV-3; 31.7 µM (inactive) with HOP-92; 15.2 µM (inactive) in the assay on T47D; 19.6 µM (inactive) in the assay with BT-549; 7.5 µM in the assay on HCT-15. Also, the GI50 with DU-145 is 18.4 µM (inactive); in the assay with NCI-H23, 28.8 µM (inactive); with SK-MEL-28 it was 18.7 µM (inactive); in the assay with SK-MEL-5, 15 µM (inactive); in the assay on SK-MEL-2, 14.8 µM (inactive); in the assay on HT-29, 24.4 µM (inactive). Also, the GI50 is 7 µM (inactive) in the assay on CCRF-CEM; 10.6 µM (inactive) with SF-268; 29.4 µM (inactive) with HOP-62; 11.7 µM (inactive) with OVCAR-3; 13.9 µM (inactive) with SNB-75.

For `CCOC(=O)c1ccc(Nc2nc3ccccc3nc2C(=O)OCC)cc1`, the GI50 with HCT-116 is > 100 µM (inactive); with SK-OV-3 it was > 100 µM (inactive); in the assay on HOP-92 it was 43.1 µM (inactive); in the assay with T47D, > 100 µM (inactive); in the assay on BT-549, > 100 µM (inactive); with HCT-15, > 100 µM. In addition, the GI50 in the assay with MOLT-4, in the assay on DU-145, with NCI-H23, in the assay on SK-MEL-28, with SK-MEL-5 and in the assay with SK-MEL-2 was > 100 µM (inactive) each time. Further, the GI50 in the assay on HT-29, with CCRF-CEM, with SF-268, in the assay with HOP-62, in the assay with OVCAR-4 and with OVCAR-3 was > 100 µM (inactive) each time. Also, the GI50 in the assay with SNB-75 was 24.7 µM (inactive).

As for `c1ccc2c(c1)OC(N1CCCC1)c1cnc(N3CCOCC3)nc1-2` (configuration not stated), the GI50 in the assay on HCT-116 was > 100 µM (inactive); in the assay on SK-OV-3, 35.2 µM (inactive); in the assay with HOP-92, 16.8 µM (inactive); in the assay on T47D, 3.54 µM (inactive); in the assay on BT-549, 17.1 µM (inactive); with HCT-15 it was 45.4 µM. The GI50 is 32.9 µM (inactive) in the assay on MOLT-4; 66.8 µM (inactive) in the assay with DU-145; 15.8 µM (inactive) in the assay on NCI-H23; 30.6 µM (inactive) in the assay on NCI-H226; > 100 µM (inactive) in the assay on SK-MEL-28; 53.6 µM (inactive) in the assay on HT-29. Further, the GI50 is 31.9 µM (inactive) in the assay with CCRF-CEM; 40.6 µM (inactive) with SF-268; 57.5 µM (inactive) in the assay on HOP-62; 41.6 µM (inactive) in the assay with OVCAR-4; 34.5 µM (inactive) with OVCAR-3; 17.1 µM (inactive) with SNB-75.

Regarding `Cc1c(/N=N/c2ccccc2)c(C)n(C2OC(CO)C(O)C(O)C2O)c(=S)c1C#N` (configuration not stated), the GI50 is 21.1 µM (inactive) in the assay on HCT-116; 34 µM (inactive) in the assay with SK-OV-3; 16.6 µM (inactive) with HOP-92; 39.2 µM (inactive) in the assay on T47D; 19.9 µM (inactive) with BT-549; 28.9 µM in the assay on HCT-15. For the same compound, the GI50 was 20.8 µM (inactive) in the assay with MOLT-4; 25.1 µM (inactive) in the assay with DU-145; 27.3 µM (inactive) in the assay with NCI-H23; 32.7 µM (inactive) in the assay with SK-MEL-28; 12.3 µM (inactive) with SK-MEL-5; 16.2 µM (inactive) in the assay with SK-MEL-2. Besides, the GI50 is 32.7 µM (inactive) in the assay on HT-29; 22.5 µM (inactive) with CCRF-CEM; 17 µM (inactive) in the assay with SF-268; 25.5 µM (inactive) in the assay with HOP-62; 45.8 µM (inactive) in the assay on OVCAR-4; 21.6 µM (inactive) with OVCAR-3. Moreover, the GI50 in the assay with SNB-75 was 42.2 µM (inactive).

`CCCNc1ncnc2[nH]ncc12`: the GI50 in the assay with HCT-116 was > 100 µM (inactive); in the assay with SK-OV-3 it was > 100 µM (inactive); in the assay on HOP-92 it was 87.5 µM (inactive); in the assay on T47D it was > 100 µM (inactive); in the assay with BT-549, > 100 µM (inactive); with HCT-15, > 100 µM. Also, the GI50 in the assay with MOLT-4, in the assay with DU-145, in the assay on NCI-H23, in the assay with SK-MEL-28, in the assay with SK-MEL-5 and in the assay on SK-MEL-2 was > 100 µM (inactive) throughout. For the same compound, the GI50 in the assay on HT-29, in the assay on CCRF-CEM, in the assay with SF-268, with HOP-62, in the assay with OVCAR-4 and with OVCAR-3 was > 100 µM (inactive) throughout. The GI50 in the assay with SNB-75 is > 100 µM (inactive).

On to `N=C(CC(=O)NOC(=O)c1ccccc1)NOC(=O)c1ccccc1`, for which the GI50 in the assay with HCT-116 is 38.6 µM (inactive); in the assay with SK-OV-3, 28.7 µM (inactive); with HOP-92, 39.4 µM (inactive); with T47D, > 100 µM (inactive); in the assay on BT-549, 25.2 µM (inactive); in the assay on HCT-15, 38.5 µM. For the same compound, the GI50 is 28.5 µM (inactive) in the assay on MOLT-4; > 100 µM (inactive) in the assay on DU-145; 69.7 µM (inactive) in the assay on NCI-H23; 12.8 µM (inactive) in the assay with NCI-H226; 27.5 µM (inactive) with SK-MEL-28; 36.2 µM (inactive) with SK-MEL-5. In addition, the GI50 with HT-29 was > 100 µM (inactive); with CCRF-CEM, 38 µM (inactive); with SF-268 it was 23.2 µM (inactive); with HOP-62, 44.8 µM (inactive); in the assay with OVCAR-4, 18.3 µM (inactive); in the assay with OVCAR-3 it was 96.8 µM (inactive).

With `Cc1ccc(C)c2c1NC(=O)/C2=N\Nc1ccccc1[N+](=O)[O-]`, the GI50 in the assay with HCT-116 is > 100 µM (inactive); in the assay with SK-OV-3, > 100 µM (inactive); in the assay on HOP-92 it was 40.7 µM (inactive); in the assay with T47D, > 100 µM (inactive); in the assay with BT-549, > 100 µM (inactive); in the assay on HCT-15, > 100 µM. The GI50 with MOLT-4 is > 100 µM (inactive); with DU-145, > 100 µM (inactive); in the assay on NCI-H23 it was > 100 µM (inactive); in the assay with SK-MEL-28, > 100 µM (inactive); with SK-MEL-5 it was > 100 µM (inactive); with SK-MEL-2, 78 µM (inactive). For the same compound, the GI50 is > 100 µM (inactive) in the assay with CCRF-CEM; > 100 µM (inactive) with SF-268; 55.8 µM (inactive) in the assay on HOP-62; 38 µM (inactive) with OVCAR-4; > 100 µM (inactive) in the assay with OVCAR-3; > 100 µM (inactive) in the assay on SNB-75.

Regarding `CN1CCN(C(=O)CCC(=O)Nc2cc3c(c4ccccc24)-c2ccc4ccccc4c2C3)CC1`, the GI50 was 1.55 µM (inactive) with HCT-116; 1.6 µM (inactive) in the assay with SK-OV-3; 1.73 µM (inactive) in the assay on HOP-92; 1.7 µM (inactive) in the assay on T47D; 1.35 µM (inactive) in the assay with BT-549; 1.82 µM in the assay on HCT-15. Moreover, the GI50 in the assay with MOLT-4 is 1.77 µM (inactive); in the assay with DU-145, 1.77 µM (inactive); with NCI-H23, 1.97 µM (inactive); with NCI-H226 it was 1.76 µM (inactive); in the assay on SK-MEL-28, 1.79 µM (inactive); in the assay with SK-MEL-5, 1.6 µM (inactive). For the same compound, the GI50 in the assay on SK-MEL-2 was 1.97 µM (inactive); in the assay with HT-29, 1.72 µM (inactive); with CCRF-CEM, 2.08 µM (inactive); in the assay with SF-268, 1.8 µM (inactive); in the assay with HOP-62, 1.69 µM (inactive); in the assay with OVCAR-4, 1.5 µM (inactive). The GI50 with OVCAR-3 is 1.63 µM (inactive).

On to `O=C(O)c1nc2cc(Cl)ccc2[nH]c1=O`, for which the GI50 with HCT-116 was > 100 µM (inactive); with SK-OV-3, > 100 µM (inactive); in the assay with HOP-92, > 100 µM (inactive); in the assay on T47D it was > 100 µM (inactive); in the assay on BT-549, > 100 µM (inactive); in the assay on HCT-15, > 100 µM. Also, the GI50 in the assay on MOLT-4, in the assay on DU-145, with NCI-H23, with NCI-H226, in the assay on SK-MEL-28 and with SK-MEL-5 was > 100 µM (inactive) throughout. Besides, the GI50 in the assay on SK-MEL-2, with HT-29, in the assay with CCRF-CEM, with SF-268, in the assay on HOP-62 and in the assay with OVCAR-4 was > 100 µM (inactive) each time. The GI50 with OVCAR-3 is > 100 µM (inactive).

For the compound `COC(=O)C1=C(C(=O)OC)SC(=C2S[C@@H]3[C@@H]4C[C@H]([C@@H]3S2)[C@H]2C(=O)OC(=O)[C@@H]42)S1`, the GI50 is > 100 µM (inactive) in the assay on HCT-116; > 100 µM (inactive) with HOP-92; > 100 µM (inactive) in the assay on T47D; > 100 µM (inactive) in the assay on BT-549; > 100 µM with HCT-15; > 100 µM (inactive) in the assay with MOLT-4. The GI50 in the assay with DU-145, in the assay on NCI-H23, with NCI-H226, in the assay with SK-MEL-28, in the assay with SK-MEL-5 and in the assay with SK-MEL-2 was > 100 µM (inactive) in each case. Also, the GI50 in the assay with HT-29, in the assay with CCRF-CEM, in the assay on SF-268, with HOP-62, with OVCAR-4 and with OVCAR-3 was > 100 µM (inactive) in each case.

Consider `CN(C(=O)Cc1ccccc1)n1cn[n+](CC(=O)OC(C)(C)C)c1`, for which the GI50 is > 10 µM (inactive) with HCT-116; > 10 µM (inactive) in the assay with SK-OV-3; > 10 µM (inactive) with HOP-92; > 10 µM (inactive) in the assay on T47D; > 10 µM (inactive) in the assay on BT-549; > 10 µM in the assay with HCT-15. For the same compound, the GI50 in the assay on MOLT-4, with DU-145, with NCI-H23, in the assay with NCI-H226, in the assay on SK-MEL-28 and with SK-MEL-5 was > 10 µM (inactive) each time. Moreover, the GI50 in the assay with HT-29, with CCRF-CEM, in the assay with SF-268, in the assay with HOP-62, in the assay on OVCAR-4 and in the assay on OVCAR-3 was > 10 µM (inactive) each time.
